Measurements from patent US6107345A, “Benzocyclobutane compounds” (Adir et Compagnie, priority 1998, dated 2000).

How the values were obtained:
mouse [1] = experiment: Suspension-by-the-tail test in the mouse; format: in vivo; conditions: for Immobility: 6 minutes of the test
Source text: Suspension-by-the-tail test in the mouse
In this variation of the forced swimming test, the state of despair is induced in the mouse by suspending it head down by its tail. Placed in that uncomfortable situation, the animal struggles vigorously to start with and then adopts an immobile posture. Antidepressant products reduce the duration of immobility of the animal.
The animals are male NMRI (IFFA-CREDO) mice (22-26 g) which are housed, in groups of 20, in transparent plastic cages (59×38×20 cm) on sawdust, with food and drink as desired. On the day of the test, each mouse is placed in a separate cage as soon as it has been treated (sub-cutaneously) with the product or the solvent. Thirty minutes later, the animal is suspended by the tail from a hook using an adhesive tape attached to the tail. The hook is connected to a tension sensor which transmits all the animal's movements to a central processor ([…]-TST 1 system, ITEM-LABO, France). The total duration (sec.) of immobility of the animal during the 6 minutes of the test is recorded automatically.
The differences in the duration of immobility between the treated groups (product) and the control group (solvent) are analysed statistically by ANOVA followed by Dunnett's test, wherein p<0.05.

serotonin reuptake sites = molecular target: T1, serotonin reuptake sites (Rattus norvegicus, UniProt P31652); experiment: Determination of the affinity for serotonin reuptake sites ([3H]-paroxetine competition); format: binding; conditions: frontal cortex membranes, 1.0 nM [3H]-paroxetine, 2 hours at 25° C., pH 7.4; read-out: pKi, serotonin reuptake sites (converted)
T1 construct: The membranes are prepared from frontal cortex of rate; from tissue; host or cells: frontal cortex membranes (rat, printed 'rate')
Procedure: Determination of the affinity for serotonin reuptake sites
The incubation buffer contains […] TRIS-HCl (pH 7.4), 120 mM NaCl and 5 mM KCl. The non-specific binding is determined using 10 μM citalopram. At the end of the incubation, the incubation medium is filtered and washed three times with 5 ml of cooled buffer. The radioactivity retained on the filters is determined by liquid scintillation counting. The binding isotherms are analysed by non-linear regression to determine the IC50 values. Those values are converted into a dissociation constant (Ki) using the Cheng-Prusoff equation: […]
(§1) The results are expressed in pKi (-log Ki).

[2] = molecular target: T2, noradrenaline reuptake sites (Rattus norvegicus, UniProt Q63380); experiment: Determination of the affinity for noradrenaline reuptake sites ([3H]-nisoxetine competition); format: binding; conditions: frontal cortex membranes, 2 nM [3H]-nisoxetine, 4 hours at 4° C., pH 7.4; read-out: pKi, noradrenaline reuptake sites (converted)
T2 construct: The membranes are prepared from frontal cortex of rat; from tissue; host or cells: rat frontal cortex membranes
Procedure: The binding isotherms are analysed by non-linear regression to determine the IC50 values. Those values are converted into a dissociation constant (Ki) using the Cheng-Prusoff equation: […]
as §1

mouse [3] = experiment: Forced swimming test in the mouse; format: in vivo; conditions: for Duration of immobility: last 4 minutes (T2-T6)
Procedure: Forced swimming test in the mouse (Porsolt et al., 1977)
The forced swimming test in the mouse consists of inducing a state of despair in the animal by placing it for 6 minutes in a cylinder full of water, from which it cannot escape. The naive animal struggles vigorously for the first few minutes and then adopts an immobile posture for the last few minutes of the test. Antidepressant products reduce the duration of immobility of the animal during the test.
the animals are male CD (IFFA-CREDO) mice (22-26 g) which, on the day before the test, are placed individually in transparent plastic cages (25×15×14 cm) on sawdust, with food and drink as desired. On the day of the test, 30 minutes after treatment (product or solvent, administered sub-cutaneously), each mouse is plunged for 6 minutes (T0-T6) in a glass cylinder (23.5 cm in height, 11.5 cm in diameter) filled to a height of 6 centimeters with water maintained at 24±0.5° C. The total duration of immobility (sec.) of the animal during the last 4 minutes of the test (T2-T6) is observed: a mouse is considered to be immobile when it is floating in the water, making only small movements to keep its head out of the water.
The differences between the treated groups (product) and the control group (solvent) are evaluated statistically by variance analysis followed by Dunnett's test wherein p<0.05.

T1 sequence (P31652 whole entry): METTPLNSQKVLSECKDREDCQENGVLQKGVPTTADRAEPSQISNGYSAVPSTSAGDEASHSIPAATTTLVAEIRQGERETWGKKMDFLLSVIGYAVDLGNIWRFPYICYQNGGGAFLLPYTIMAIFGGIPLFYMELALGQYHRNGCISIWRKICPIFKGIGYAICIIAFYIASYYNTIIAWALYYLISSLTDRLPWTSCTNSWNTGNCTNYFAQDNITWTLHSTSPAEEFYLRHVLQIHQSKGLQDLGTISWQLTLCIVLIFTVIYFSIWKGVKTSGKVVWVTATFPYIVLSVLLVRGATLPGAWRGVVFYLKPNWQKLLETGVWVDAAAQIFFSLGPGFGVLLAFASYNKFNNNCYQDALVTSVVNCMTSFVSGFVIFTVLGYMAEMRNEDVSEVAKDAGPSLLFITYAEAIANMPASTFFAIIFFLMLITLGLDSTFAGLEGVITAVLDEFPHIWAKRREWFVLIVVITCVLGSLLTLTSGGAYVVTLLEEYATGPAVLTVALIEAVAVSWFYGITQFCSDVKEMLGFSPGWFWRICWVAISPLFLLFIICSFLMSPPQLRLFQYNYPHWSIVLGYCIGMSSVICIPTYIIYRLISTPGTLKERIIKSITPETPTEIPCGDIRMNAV
T2 sequence (Q63380 1-617): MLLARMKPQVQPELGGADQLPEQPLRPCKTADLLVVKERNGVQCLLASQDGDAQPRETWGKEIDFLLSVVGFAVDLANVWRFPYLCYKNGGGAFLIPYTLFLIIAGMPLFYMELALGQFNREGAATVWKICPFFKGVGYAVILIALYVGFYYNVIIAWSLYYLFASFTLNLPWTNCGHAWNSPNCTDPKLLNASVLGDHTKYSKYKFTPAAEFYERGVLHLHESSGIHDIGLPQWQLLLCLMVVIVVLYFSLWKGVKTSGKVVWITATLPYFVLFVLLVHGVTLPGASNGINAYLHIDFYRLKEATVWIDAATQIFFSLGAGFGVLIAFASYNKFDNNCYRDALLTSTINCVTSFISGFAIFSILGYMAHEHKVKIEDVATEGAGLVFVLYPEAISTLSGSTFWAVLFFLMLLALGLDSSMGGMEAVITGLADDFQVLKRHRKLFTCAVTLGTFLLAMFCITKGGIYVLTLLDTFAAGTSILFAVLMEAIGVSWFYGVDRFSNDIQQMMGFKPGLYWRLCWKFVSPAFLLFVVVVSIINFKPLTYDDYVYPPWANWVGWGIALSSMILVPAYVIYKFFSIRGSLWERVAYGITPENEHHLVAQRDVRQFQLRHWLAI

Compound: COc1ccc2c(c1)C(CN(C)C)(C1(O)CCCCC1)C2 (stereo not drawn) [Example 3, 1-(N,N-Dimethylaminomethyl)-1-(1-hydroxycyclohex-1-yl)-5-methoxybenzocyclobutane]
- Immobility, %/control (mouse [1]; 0.63 mg/kg s.c.): 88%
- Immobility (mouse [1]; 0.63 mg/kg s.c.): 70.4 ± 13.5 s
- Immobility, %/control (mouse [1]; 2.5 mg/kg s.c.): 51%
- Immobility (mouse [1]; 2.5 mg/kg s.c.): 41.1 ± 9.6 s
- Immobility, %/control (mouse [1]; 10.0 mg/kg s.c.): 35%
- Immobility (mouse [1]; 10.0 mg/kg s.c., * p < 0.05): 27.8 ± 9.6 s

Compound: COc1ccc2c(c1)C(CN(C)C)(C1(O)CCCCC1)C2 (single isomer, unassigned; (-)) [Example 8, (-)-Isomer of 1-(N,N-dimethylaminomethyl)-1-(1-hydroxycyclohex-1-yl)-5-methoxybenzocyclobutane]
- Ki (serotonin reuptake sites): 2 nM

Compound: COc1cccc2c1C(CN(C)C)(C1(O)CCCCC1)C2 (stereo not drawn) [Example 9, 1-(N,N-Dimethylaminomethyl)-1-(1-hydroxycyclohex-1-yl)-6-methoxybenzocyclobutane]
- Ki [2]: 56.2 nM

Compound: COc1ccc2c(c1)CC2(CN(C)C)C1(O)CCCCC1 (stereo not drawn) [Example 4, 1-(N,N-Dimethylaminomethyl)-1-(1-hydroxycyclohex-1-yl)-4-methoxybenzocyclobutane]
- Duration of immobility, %/control (mouse [3]; 0.63 mg/kg s.c.): 94%
- Duration of immobility (mouse [3]; 0.63 mg/kg s.c.): 157.3 ± 18.9 s
- Duration of immobility, %/control (mouse [3]; 2.5 mg/kg s.c.): 61%
- Duration of immobility (mouse [3]; 2.5 mg/kg s.c.): 101.6 ± 57.3 s
- Duration of immobility, %/control (mouse [3]; 10.0 mg/kg s.c.): 4%
- Duration of immobility (mouse [3]; 10.0 mg/kg s.c., * p < 0.05): 6.1 ± 6.1 s

Compound: CNCCC(Oc1ccc(C(F)(F)F)cc1)c1ccccc1 (stereo not drawn) [fluoxetine, reference compound]
- Duration of immobility, %/control (mouse [3]; 2.5 mg/kg s.c.): 94%
- Duration of immobility, %/control (mouse [3]; 10.0 mg/kg s.c.): 75%
- Duration of immobility, %/control (mouse [3]; 40.0 mg/kg s.c.): 73%
- Immobility, %/control (mouse [1]; 40.0 mg/kg s.c.): 91%
- Immobility (mouse [1]; 40.0 mg/kg s.c.): 69.9 ± 17.8 s
- Immobility, %/control (mouse [1]; 80.0 mg/kg s.c.): 110%
- Immobility (mouse [1]; 80.0 mg/kg s.c.): 84.3 ± 12.4 s
